Laboratory results as given in PMC10620940 (ACS Omega, 2023).
Where two headings read alike, the source gives them in different places.

Assays:
[1] = tested on: SARS-CoV-2 strain BetaCoV/France/IDF0372/2020; experiment: microbe, parasite or virus in culture; details: Severe acute respiratory syndrome coronavirus 2, U2OS
SARS-CoV-2 [2] = details: A549 + ACE2 cells, pretreatment; cited from earlier work
SARS-CoV-2 [3] = details: SARS-CoV-2-infected mice; cited from earlier work
SARS-CoV-2 PL^pro = details: in vitro SARS-CoV-2 PL^pro; cited from earlier work
in vitro = details: human, CC50, U2-OS ACE2 GFP cells
SARS-CoV-2 [4] = details: cited from earlier work

Structure (SMILES) | IC50 [1] [nM] | IC50 (SARS-CoV-2 [2]) [nM] | viral load in the lungs (SARS-CoV-2 [3]) | IC50 (SARS-CoV-2 PL^pro) [nM] | CC50 (in vitro) [nM] | IC50 (SARS-CoV-2 [4]) [nM]
COc1ccc2nc3cc(Cl)ccc3c(Nc3cc(CN4CCCC4)c(O)c(CN4CCCC4)c3)c2n1 [7g, pyronaridine] | 420 | 230 | reduces viral load | 1800 | 4700 | 
CCN(CC)CCCC(C)Nc1c2ccc(Cl)cc2nc2ccc(OC)cc12 (centres unmarked) [quinacrine] | 2570 | 190 |  |  |  | 
CCC(CC)COC(=O)[C@H](C)N[P@](=O)(OC[C@H]1O[C@@](C#N)(c2ccc3c(N)ncnn23)[C@H](O)[C@@H]1O)Oc1ccccc1 [remdesivir] |  |  |  |  |  | 20 to 50
